Source: US20250255304A1, “HIGHLY TRA[…] CONTROLLING COMPOSITION” (ZM Crop Protection Corporation, priority 2022, published 2025)

Experiments:
Type in all cases: in vivo
[1] = system: Coptotermes formosanus Shiraki; experiment: Test Example 1: effect of agent on gypsum treated with test agent solution; conditions: dicloromezotiaz 0.023%, imidacloprid 0.1%, fipronil 0.03% test agent solution on gypsum
Method: A test agent solution containing 0.023 parts of dicloromezotiaz was prepared by adding 99.875 parts of water to 0.125 parts of the aqueous suspension composition shown in Formulation Example 1.
In a comparative example, an aqueous suspension composition prepared by adding an agent solution, wherein 99 parts of water was added to 1 part of a flowable containing 10.0 parts of imidacloprid and which contained 0.1 parts of imidacloprid and a drug solution, wherein 299 parts of water was added to 1 part of a flowable containing 9.1 parts of fipronil and which contained 0.03 parts of fipronil, uniformly mixing same was used as a test agent solution of a comparative example.
As the imidacloprid formulation and the fipronil formulation, commercially available termite controlling agents were used and diluted solutions at practical agent concentrations thereof were used as test agent solutions.
Gypsum was cured and spread in a glass petri dish having a diameter of 90 mm, 15 ml of each of the test agent solution of the example and the test agent solution of the comparative example was uniformly dropped on the entire surface of the gypsum. Thereafter, ten workers of Coptotermes formosanus Shiraki were released into the petri dish and the petri dish was covered and left to stand in a thermostatic chamber (25° C./relative humidity 60%).
The number of abnormal termites and the number of dead termites among the released termites (Coptotermes formosanus Shiraki) were observed every one hour from immediately after the release of the termites (Coptotermes formosanus Shiraki) until ten hours passed and the total number of the abnormal termite rate and the dead termite rate was calculated as the abnormal or dead termite rate (%) according to [Expression 1] below and the rates of expression of the effects of the respective agents were compared. Each test agent was prepared in one petri dish as one plot and the test was carried out in two replicates.

[2] = system: Coptotermes formosanus Shiraki; experiment: Test Example 2: primary transmission treatment effect; conditions: Table 3, dicloromezotiaz 0.023%, fipronil 0.03%, imidacloprid 0.10%, chlorantraniliprole 0.05% solution in soil
Method: (§1) A test agent solution containing 0.023 parts of dicloromezotiaz was prepared by adding 99.875 parts of water to 0.125 parts of the aqueous suspension composition shown in Formulation Example 1. As comparative examples, four types of commercially available neonicotinoid termite controlling agents and four types of slow-acting termite controlling agents shown in Table 2 were diluted with water at practical concentrations to prepare test agent solutions. The “agent concentration (%)” indicates the concentration of the active ingredient contained in each of the composition of the present invention and the termite controlling agents and the “test agent solution concentration (%)” indicates the concentration of the active ingredient in each of the prepared test agent solutions.
(§2) After 1.2 g of each of the test agent solutions of the example and the comparative examples diluted to a predetermined concentration and prepared was added to 4.8 g of soil, 6 g of the mixed soil was spread in a glass petri dish having a diameter of 50 mm and ten workers of Coptotermes formosanus Shiraki were released into the petri dish and exposed to the agent solution for 4 hours.

[3] = system: Coptotermes formosanus Shiraki; experiment: Test Example 2: secondary transmission treatment effect; conditions: Table 5, dicloromezotiaz 0.023%, fipronil 0.03%, imidacloprid 0.10%, chlorantraniliprole 0.05% solution in soil
Method: as §1, §2

[4] = system: Coptotermes formosanus Shiraki; experiment: Test Example 3: extirpation test with dust formulation using simulated termite trails; conditions: active ingredient concentration 0.5%

## N#Cc1nn(-c2c(Cl)cc(C(F)(F)F)cc2Cl)c(N)c1[S+]([O-])C(F)(F)F (stereo not shown) [Fipronil]
[1]; time elapsed 1 h
  Abnormal or dead termite rate (%): 18%
[1]; time elapsed 2 h
  Abnormal or dead termite rate (%): 36%
[1]; time elapsed 3 h
  Abnormal or dead termite rate (%): 52%
[1]; time elapsed 4 h
  Abnormal or dead termite rate (%): 100%
[1]; time elapsed 5 h
  Abnormal or dead termite rate (%): 100%
[1]; time elapsed 6 h
  Abnormal or dead termite rate (%): 100%
[1]; time elapsed 7 h
  Abnormal or dead termite rate (%): 100%
[1]; time elapsed 8 h
  Abnormal or dead termite rate (%): 100%
[1]; time elapsed 9 h
  Abnormal or dead termite rate (%): 100%
[1]; time elapsed 10 h
  Abnormal or dead termite rate (%): 100%
[2]; after 1 day
  Abnormal or dead termite rate (%): 82%
[2]; after 3 days
  Abnormal or dead termite rate (%): 95%
[2]; after 7 days
  Abnormal or dead termite rate (%): 100%
[2]; after 14 days
  Abnormal or dead termite rate (%): 100%
[2]; after 21 days
  Abnormal or dead termite rate (%): 100%
[3]; after 1 day
  Abnormal or dead termite rate (%): 0%
[3]; after 3 days
  Abnormal or dead termite rate (%): 0%
[3]; after 7 days
  Abnormal or dead termite rate (%): 19%
[3]; after 14 days
  Abnormal or dead termite rate (%): 30%
[3]; after 21 days
  Abnormal or dead termite rate (%): 31%
[4]; 1 h
  Abnormal or dead termite rate (%): 0%
[4]; 2 h
  Abnormal or dead termite rate (%): 5%
[4]; 3 h
  Abnormal or dead termite rate (%): 50%
[4]; 4 h
  Abnormal or dead termite rate (%): 95%
[4]; 5 h
  Abnormal or dead termite rate (%): 95%
[4]; 6 h
  Abnormal or dead termite rate (%): 100%
[4]; 7 h
  Abnormal or dead termite rate (%): 100%
[4]; 1 day
  Abnormal or dead termite rate (%): 100%
[4]; 2 days
  Abnormal or dead termite rate (%): 100%
[4]; 3 days
  Abnormal or dead termite rate (%): 100%
[4]; 7 days
  Abnormal or dead termite rate (%): 100%
